US11452781B2, “Method of preventing and treating type 1 diabetes, allograft rejection and lung fibrosis (by targeting the ATP/P2X7R axis)” (CHILDREN'S MEDICAL CENTER CORPORATION, priority 2013, dated 2022)
Entries after “also recorded” stand apart in the source; their conditions may differ.

Assays:
naïve CD4+ T-cells = test: ELISPOT, naïve CD4+ T cells stimulated with anti-CD3-Ig and anti-CD28-Ig; assay type: cell-based, mouse; details: for anti-CD3-Ig/anti-CD28-Ig-mediated IFN-γ production: 100 μM oATP combined with 50 μM NF-449 and 50 μM 5-BDBD
Experimental: The effect of P2X7R targeting was tested by treatment with oATP during T-cell activation. […] Similarly, in a T-cell proliferation assay, CFSE-labeled naïve CD4^+ T-cells were stimulated for 4 days with 0.5 μg/ml anti-CD3-Ig and anti-CD28-Ig; treatment with 100 μM oATP diminished CD4^+ T-cell proliferation (FIG. 5B, right panel) compared to controls (FIG. 5B, left panel).
To address the mechanisms underlying P2X7R targeting mediated inhibition of cardiac transplant rejection, the inventors analyzed the effect of P2X7R targeting on T-cell activation and Th1/Th17 differentiation in vitro. […] The effect of in vitro P2X7R targeting with oATP during CD4+ T-cell activation was tested. […] Second, in a T-cell proliferation assay, carboxyfluorescein diacetate succinimidyl ester-labeled naïve CD4+ T cells were stimulated for 96 hours with 0.5 μg/mL anti-CD3-Ig and anti-CD28-Ig, and treatment with 100 μM oATP diminished CD4+ T cell proliferation in comparison with controls. […] The inventors next tested the effect of in vitro P2X7R targeting during a Th1/Th17 generation and differentiation assay. […] P2X7R targeting with oATP inhibited Th0 conversion into both Th1 and Th17, as assessed by the percentage of IFN-γ+ and IL-17+ cells, respectively. The inventors show, therefore, that P2X7R targeting through oATP suppresses activation, proliferation, and Th1/Th17 differentiation of CD4+ T cells. The inventors then further investigated the role of P2X7R on T-cell activation and Th1/Th17 differentiation by genetic upregulation of P2X7R. P2X7R cDNA was transduced by using a pMY-IRES-GFP retroviral vector into CD4+ T cells (pmY-P2X7R CD4+ T cells), and upregulation of P2X7R expression was confirmed by Western blot. pmY-P2X7R CD4+ T cells were then challenged with anti-CD3-Ig/anti-CD28-Ig stimulation in an ELISPOT assay. […] In a Th1/Th17 generation assay, pmY-P2X7R CD4+ T cells seemed to display increased differentiation capacity in comparison with pmY-mock CD4+ T cells, as assessed by T-bet and ROR-γ expression.
(§1) Several key components of T-cell receptor signaling involved in the alloimmune response were examined, and the phosphorylation kinetics following in vitro anti-CD3-Ig/anti-CD28-Ig-mediated CD4+ T-cell activation was evaluated by using the Luminex assay. […] The inventors first confirmed that Colivelin (Col) was able to restore the activation-induced phosphorylation of STAT3 in a dose-dependent manner in oATP-treated CD4+ T cells by Western blotting. […] The effect of oATP and Colivelin on STAT3 phosphorylation and T-cell function was also evaluated following cardiac transplantation.

STAT3 [1] = test: Phosphorylation of T-cell signaling molecules in activated CD4+ T cells (Luminex/Milliplex, Western blot); assay type: cell-based, mouse; details: Colivelin add-back, Western blot
Experimental: 60 minutes after anti-CD3-Ig and anti-CD28-Ig mediated activation, cells were lysed and the phosphorylation status of CREB, Erk, Akt, JNK, p38, p70 S6 Kinase, STAT3, and STAT5A/B was assessed using the Millipore Milliplex Cell Signaling Assay. […] Data were confirmed by western blot (FIG. 6D).
as §1

STAT3 [2] = test: STAT3 phosphorylation in CD4+ T cells of cardiac-transplanted mice (Western blot); assay type: in vivo, mouse; details: 7 days after transplantation
Experimental: as §1

[3] = system: C57BL/6 mice transplanted with BALB/c hearts; assay type: in vivo, mouse; details: oATP-treated cardiac-transplanted mice
Experimental: The effect of P2X7R targeting in preventing cardiac transplant rejection was tested using the P2X7R inhibitor oATP.
The effect of P2X7R targeting in preventing cardiac transplant rejection was tested by using the P2X7R inhibitor oATP.

C57BL/6 splenocytes = test: In vitro alloimmune ELISPOT, C57BL/6 responder splenocytes vs irradiated BALB/c splenocytes; assay type: cell-based, mouse; details: selective P2X1R / P2X3R inhibitors
From the text: The effect of increasing doses of oATP on Th1/Th17 cytokine levels was next tested. A dose-dependent response was evident, in which oATP reduced the number of cells producing Th1 cytokines (IFN-γ and IL-2) and Th17 cytokines (IL-6 and IL-17). Because it has been reported that oATP may affect other P2XRs, the inventors made use of the availability of the selective P2X1R inhibitor NF 449 and of the selective P2X3R inhibitor NF 110. C57BL/6 splenocytes were stimulated with irradiated BALB/c splenocytes, and IFN-γ production was evaluated in the presence of these inhibitors.

CD4+ and CD8+ T cells = test: IFN-γ production of CD4+ and CD8+ T cells with Bz-ATP; assay type: cell-based, mouse
[4] = system: PBMCs obtained from healthy control subjects; test: ELISPOT, human PBMCs challenged with allogeneic irradiated PBMCs; assay type: cell-based
[5] = system: C57BL/6 mice transplanted with BALB/c islets; test: Allogeneic islet transplantation, BALB/c islets into diabetic C57BL/6 mice: graft survival; assay type: in vivo, mouse; details: oATP daily i.p. 14-15 days, rapamycin 0.1 mg/kg 10 days
[6] = system: B6 recipients of BALB/c lung allografts; test: Mouse orthotopic lung transplant, BALB/c donor and C57BL/6 recipient; assay type: in vivo
Experimental: Orthotopic left lung transplants were performed as previously described {Bizargity, #22; Iken, #21}. Briefly, donor mice were anesthetized with ketamine and xylazine, intubated with a 22 G Angiocath, and ventilated with isoflurane/oxygen. Lungs were flushed with ice cold phosphate buffered saline, left lung harvested and cuffs placed in the pulmonary artery, pulmonary vein and bronchus. Recipient mice were anesthetized and ventilated with isoflurane/oxygen, and left lung transplants performed via a thoracotomy and implantation of the three-cuffed hilar structures. Transplanted lungs were harvested 15 to 60-70 days following transplantation.
Allografts were evaluated 15, 30, and 60-70 days after transplant.
Outcome Measures—In vivo assessment of transplanted lung function was performed by thoracic CT scan imaging and measuring peak airway pressures (PawP) as previously described {Bizargity, #22}. […] Flow cytometry and enzyme-linked immunosorbent spot assay (ELISPOT) for interferon (IFN)-γ and interleukin (IL)-4 were performed as previously described {Vergani, #25; Vergani, #9}.

Colivelin
reversal of oATP-mediated suppression of IFN-γ-producing cells (naïve CD4+ T-cells; Colivelin added to oATP-treated cells): significantly revert; also recorded: partially reverted | activation-induced phosphorylation of STAT3 in oATP-treated CD4+ T cells (STAT3 [1]): restore | phosphorylated STAT3 in CD4+ T cells (STAT3 [2]): reestablish STAT3 phosphorylation | effect of Colivelin on oATP-mediated allograft survival [3]: greatly abrogated the effect of oATP

O=C1CN=C(c2cccc(Br)c2)c2oc3ccccc3c2N1 [5-BDBD]
anti-CD3-Ig/anti-CD28-Ig-mediated IFN-γ production (naïve CD4+ T-cells): further suppression

O=C(Nc1cc(C(=O)Nc2ccc(S(=O)(=O)O)cc2S(=O)(=O)O)cc(C(=O)Nc2ccc(S(=O)(=O)O)cc2S(=O)(=O)O)c1)Nc1cc(C(=O)Nc2ccc(S(=O)(=O)O)cc2S(=O)(=O)O)cc(C(=O)Nc2ccc(S(=O)(=O)O)cc2S(=O)(=O)O)c1 [NF 449]
anti-CD3-Ig/anti-CD28-Ig-mediated IFN-γ production (naïve CD4+ T-cells): further suppression | alloantigen-mediated IFN-γ production (C57BL/6 splenocytes): failed to modulate

Nc1ncnc2c1ncn2[C@@H]1O[C@H](COP(=O)(O)OP(=O)(O)OP(=O)(O)O)[C@@H](OC(=O)c2ccc(C(=O)c3ccccc3)cc2)[C@H]1O [Bz-ATP, benzoyl-ATP]
IFN-γ production (CD4+ and CD8+ T cells; 1 mmol/L Bz-ATP, T cells from wildtype mice): increased | IFN-γ production (CD4+ and CD8+ T cells; T cells from P2X7R2/2 mice): similarly stimulated

COC[C@H](O)Cn1c(=O)cnn(-c2ccc(Cl)c(C(=O)NCC3(O)CCCCCC3)c2)c1=O [CE-224535]
allo- and autoimmune responses ex vivo [4]: inhibition

CO[C@H]1C[C@@H]2CC[C@@H](C)[C@@](O)(O2)C(=O)C(=O)N2CCCC[C@H]2C(=O)O[C@H]([C@H](C)C[C@@H]2CC[C@@H](O)[C@H](OC)C2)CC(=O)[C@H](C)/C=C(\C)[C@@H](O)[C@@H](OC)C(=O)[C@H](C)C[C@H](C)/C=C/C=C/C=C/1C [Rapamycin]
islet allograft mean survival time (MST) [5]: 19 days | islet allograft mean survival time (MST) ([5]; listed as rapamycin): 18 days

Cc1ccc(C(=O)Nc2ccc(S(=O)(=O)O)c3cc(S(=O)(=O)O)cc(S(=O)(=O)O)c23)cc1NC(=O)c1cccc(NC(=O)Nc2cccc(C(=O)Nc3cc(C(=O)Nc4ccc(S(=O)(=O)O)c5cc(S(=O)(=O)O)cc(S(=O)(=O)O)c45)ccc3C)c2)c1 [suramin]
acute cellular rejection (ACR grade) ([6]; 15, 30 and ≥60 days after transplantation): reduction | lung function (PawP) ([6]; 15 to ≥60 days): improved

O=C(Nc1cc(C(=O)Nc2ccc(S(=O)(=O)O)cc2)cc(C(=O)Nc2ccc(S(=O)(=O)O)cc2)c1)Nc1cc(C(=O)Nc2ccc(S(=O)(=O)O)cc2)cc(C(=O)Nc2ccc(S(=O)(=O)O)cc2)c1 [NF 110]
alloantigen-mediated IFN-γ production (C57BL/6 splenocytes): failed to modulate
